Experimental data reported in patent US20250108038A1 (priority 2023, published 2025).
Like-named read-outs stand apart in the source and are kept apart here.

Columns and labels:
OCT1 = target: T1, OCT1 (Homo sapiens, UniProt O15245); assay: Uptake transporter inhibition assay, OCT1 (sumatriptan)
T1 sequence (O15245 1-554): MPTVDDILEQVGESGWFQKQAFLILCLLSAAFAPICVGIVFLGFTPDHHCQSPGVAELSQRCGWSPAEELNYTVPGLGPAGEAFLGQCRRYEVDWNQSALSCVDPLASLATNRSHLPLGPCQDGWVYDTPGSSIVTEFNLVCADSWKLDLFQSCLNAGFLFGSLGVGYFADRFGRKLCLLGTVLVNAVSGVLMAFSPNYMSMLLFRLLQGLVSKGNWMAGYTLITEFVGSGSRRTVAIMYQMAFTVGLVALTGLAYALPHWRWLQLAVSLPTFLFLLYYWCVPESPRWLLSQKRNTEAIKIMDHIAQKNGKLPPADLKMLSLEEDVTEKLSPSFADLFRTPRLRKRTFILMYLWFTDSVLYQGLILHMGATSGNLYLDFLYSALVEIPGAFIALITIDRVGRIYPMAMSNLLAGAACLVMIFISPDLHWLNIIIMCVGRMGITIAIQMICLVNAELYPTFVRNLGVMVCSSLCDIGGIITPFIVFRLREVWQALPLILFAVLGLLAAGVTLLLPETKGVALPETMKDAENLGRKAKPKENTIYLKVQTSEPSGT
Method: Uptake experiments were performed using HEK293 cells stably expressing the respective uptake transporters. The assays were conducted according to the actual SOLVO uptake transporter assay protocols (PR-ASY-UPT-General Protocol for Uptake Transporter Inhibition Assays).
Cells were cultured at 37° C. in a humidified atmosphere containing 5% CO2 and were plated onto standard 96-well tissue culture plates.
Before the experiment, the medium was removed, and the cells were washed twice with 100 μL of pre-warmed (37° C.) assay buffer listed in Table 15. The cells were pre-incubated at 37° C. for 30 minutes in assay buffer containing the test article at appropriate concentrations (Table 16), appropriate solvents for solvent controls and the reference inhibitor for reference inhibitor wells. After the pre-incubation step solutions were removed. Uptake experiments were performed at 37° C. in 50 μL of assay buffer containing the probe substrate and the test article or solvent and controls.
After the experiment, cells were washed twice with 100 μL of appropriate cold buffer and lysed with 150 μL scintillation cocktail. Radiolabeled probe substrate transport was determined by liquid scintillation counting.
Uptake of the probe substrate in control cells provided background activity values for all data points.

[1] = Metabolic stability in human intestinal homogenate; type: in vitro ADME
Method: The intestinal homogenate mixture solution was added to 96-well plates ([…]) in duplicate. […] Reaction was initiated by adding cofactor solution at 10 μL/well.
The intrinsic clearances were calculated using the following equations: […]

[2] = Stability in components of rat blood; type: in vitro ADME; settings: 0.5 mM, 37° C., 0-120 min
Method: FIG. 5A. […] Compound I-19 in components of rat blood. Red blood cells and plasma were isolated from whole blood. […] Values represent mean+SEM of n=3 separate experiments.
FIG. 5B. Stability of Compound I-4 in components of rat blood. Red blood cells and plasma were isolated from whole blood. […] Values represent mean+SEM of n=3 separate experiments.
Human and rat blood were centrifuged to separate out red blood cells at 1174×g for 15 min. The upper plasma level was aspirated with a micropipette and placed in a bleach solution for disposal. The RBC pellet was resuspended in sterile isotonic saline. The pellet was gently resuspended by rocking the tube. The sample was then centrifuged again to collect the RBC pellet and then resuspended and washed one more time following the same procedure. A total of three was done. Following the last wash and centrifugation, the RBCs were resuspended with PBS; and mixed by inversion. Aliquots of the resuspended and washed RBCs were then placed into 4 reaction tubes. These tubes were centrifuged to collect the RBCs. The fluid level was marked on each tube, then the supernatant was aspirated off and the cells resuspended with room temperature PBS pH 7.4 to the original mark. An aliquot of the RBC suspension was added to four sterile tubes containing PBS pH 7.4 at room temperature.
The stability of test articles in whole blood, red blood cells only, and plasma was done to determine stability in each blood compartment. 50 μL of test article was placed in each blood matrix. The final volume was 1 mL (0.5 mM). […] LCMSMS of parent compound was used to determine stability.

[3] = 0.04 μM nominal, sumatriptan, IC50 determination, Table 122
[4] = 0.12 μM nominal, sumatriptan, IC50 determination, Table 122
[5] = 1.11 μM nominal, sumatriptan, IC50 determination, Table 122
[6] = 3.00 μM nominal, sumatriptan, Table 121
[7] = 10.00 μM nominal, sumatriptan, IC50 determination, Table 122
[8] = 30.00 μM nominal, sumatriptan, IC50 determination, Table 122
[9] = 30.00 μM nominal, sumatriptan, Table 121
[10] = 1 μM, 0.5 mg/mL homogenate, 1 mM NADPH
[11] = 1 μM, NCF60 (60 min, no cofactors)
[12] = 0.14 μM nominal, 0.09 μM NSB corrected, follow-up assay
[13] = 1.24 μM nominal, 0.86 μM NSB corrected, follow-up assay
[14] = 10.00 μM nominal, 6.60 μM NSB corrected
[15] = 11.11 μM nominal, 7.89 μM NSB corrected, follow-up assay
[16] = 33.33 μM nominal, 24.33 μM NSB corrected, follow-up assay
[17] = 100.00 μM nominal, 77.00 μM NSB corrected
[18] = 100.00 μM nominal, 100.00 μM NSB corrected, follow-up assay
[19] = […] nominal, 1.89 μM NSB corrected, follow-up assay

With `OC1(c2ccc(Cl)cc2)c2ccccc2C2=NCCN21` (centres unmarked) [Compound A, 5-(4-chlorophenyl)-2,3-dihydroimidazo[1,2-b]isoindol-5-ol, reference compound] the IC50 (OCT1) was 2310 nM, the “Relative transporter specific accumulation” value (OCT1; [3]) was 91.36 ± 5.98 % of control and the Transporter specific accumulation (OCT1; [3]) was 881.00 ± 27.83 cpm. For the same compound, the “Relative transporter specific accumulation” value (OCT1; [4]) was 73.95 ± 5.69 % of control, the Transporter specific accumulation (OCT1; [4]) was 713.17 ± 36.62 cpm and the “Relative transporter specific accumulation” value (OCT1; [5]) was 65.12 ± 6.84 % of control. The Transporter specific accumulation (OCT1; [5]) was 628.00 ± 55.27 cpm, the “Relative transporter specific accumulation” value (OCT1; [6]) was 51.27 ± 1.85 % of control and the Transporter specific accumulation (OCT1; [6]) was 484.33 ± 16.61 cpm. The “Relative transporter specific accumulation” value (OCT1; [7]) was 25.23 ± 3.64 % of control, the Transporter specific accumulation (OCT1; [7]) was 243.33 ± 32.16 cpm and the “Relative transporter specific accumulation” value (OCT1; [8]) was 14.03 ± 4.75 % of control. For the same compound, the Transporter specific accumulation (OCT1; [8]) was 135.33 ± 45.14 cpm, the “Relative transporter specific accumulation” value (OCT1; [9]) was 15.00 ± 1.09 % of control and the Transporter specific accumulation (OCT1; [9]) was 141.67 ± 10.22 cpm. The inhibition at 10 µM (OCT1; human, Maximum % inhibition, OCT1, HEK293 cells, sumatriptan (10 μM), NIO: no inhibition observed) was 86%, the inhibition at 0.04 μM (OCT1; human, Relative Inhibition, 0.04 μM nominal, sumatriptan, IC50 determination, Table 122) was 9% and the inhibition at 0.12 μM (OCT1; human, Relative Inhibition, 0.12 μM nominal, sumatriptan, IC50 determination, Table 122) was 26%. It also gave an inhibition at 1.11 μM (OCT1; human, Relative Inhibition, 1.11 μM nominal, sumatriptan, IC50 determination, Table 122) of 35%, an inhibition at 10 µM (OCT1; human, Relative Inhibition, 10.00 μM nominal, sumatriptan, IC50 determination, Table 122) of 75% and an inhibition at 30 μM (OCT1; human, Relative Inhibition, 30.00 μM nominal, sumatriptan, IC50 determination, Table 122) of 86%. For the same compound, the inhibition at 3 μM (OCT1; human, Relative inhibition, 3.00 μM nominal, sumatriptan, Table 121) was 49% and the inhibition at 30 μM (OCT1; human, Relative inhibition, 30.00 μM nominal, sumatriptan, Table 121) was 85%.

With `Clc1ccc(C2(OCC3OCCO3)c3ccccc3C3=NCCN32)cc1` (centres unmarked) [Compound I-19] the “Compound A formed (Aa/Ai)” value ([1]; 0 min) was 0.76, the “% Remaining” value ([1]; 1 μM, 0 min) was 100% and the “Aa/Ai Mean (n = 2)” value ([1]; 1 μM, 0 min) was 0.90. For the same compound, the “CLint(HIH)” value [1, 10] was 20.0 µL/min/mg, the T1/2 [1, 10] was 69.3 min and the “% Remaining” value ([1]; 1 μM, 5 min) was 85.6%. The “Aa/Ai Mean (n = 2)” value ([1]; 1 μM, 5 min) was 0.77, the “% Remaining” value ([1]; 1 μM, 10 min) was 82.8% and the “Aa/Ai Mean (n = 2)” value ([1]; 1 μM, 10 min) was 0.75. For the same compound, the “% Remaining” value ([1]; 1 μM, 20 min) was 68.4%, the “Aa/Ai Mean (n = 2)” value ([1]; 1 μM, 20 min) was 0.62 and the “% Remaining” value ([1]; 1 μM, 30 min) was 65.2%. For the same compound, the “Aa/Ai Mean (n = 2)” value ([1]; 1 μM, 30 min) was 0.59, the “% Remaining” value ([1]; 1 μM, 60 min) was 52.6% and the “Aa/Ai Mean (n = 2)” value ([1]; 1 μM, 60 min) was 0.47. The “% Remaining” value [1, 11] was 55.5%, the “Aa/Ai Mean (n = 2)” value [1, 11] was 0.50 and the “Compound A formed (Aa/Ai)” value ([1]; 5 min) was 0.67. For the same compound, the “Compound A formed (Aa/Ai)” value ([1]; 10 min) was 0.67, the “Compound A formed (Aa/Ai)” value ([1]; 20 min) was 0.65 and the “Compound A formed (Aa/Ai)” value ([1]; 30 min) was 0.61. For the same compound, the “Compound A formed (Aa/Ai)” value ([1]; 60 min) was 0.53, the “Compound A formed (Aa/Ai)” value ([1]; NCF60 (60 min, no cofactors)) was 0.58 and the “% parent compound remaining” value ([2]; rat plasma) was “small time-dependent decrease in the amount of parent compound present”. For the same compound, the “% parent compound remaining” value ([2]; rat red blood cells) was “small time-dependent decrease in the amount of parent compound present”, the “% parent compound remaining” value ([2]; rat whole blood) was “small time-dependent decrease in the amount of parent compound present” and the Relative inhibition (OCT1; [12]) was 16%. For the same compound, the “Relative transporter specific accumulation” value (OCT1; [12]) was 84.03 ± 3.76 % of control, the Transporter specific accumulation (OCT1; [12]) was 896.33 ± 19.14 cpm and the Relative inhibition (OCT1; [13]) was 39%. The “Relative transporter specific accumulation” value (OCT1; [13]) was 61.16 ± 2.59 % of control, the Transporter specific accumulation (OCT1; [13]) was 652.33 ± 10.37 cpm and the Relative inhibition (OCT1; [14]) was 71%. For the same compound, the “Relative transporter specific accumulation” value (OCT1; [14]) was 29.35 ± 0.48 % of control, the Transporter specific accumulation (OCT1; [14]) was 930.00 ± 10.03 cpm and the Relative inhibition (OCT1; [15]) was 73%. For the same compound, the “Relative transporter specific accumulation” value (OCT1; [15]) was 27.13 ± 1.77 % of control, the Transporter specific accumulation (OCT1; [15]) was 289.33 ± 15.11 cpm and the Relative inhibition (OCT1; [16]) was 86%. The “Relative transporter specific accumulation” value (OCT1; [16]) was 14.47 ± 0.94 % of control, the Transporter specific accumulation (OCT1; [16]) was 154.33 ± 8.03 cpm and the Relative inhibition (OCT1; [17]) was 92%. For the same compound, the “Relative transporter specific accumulation” value (OCT1; [17]) was 8.17 ± 0.48 % of control, the Transporter specific accumulation (OCT1; [17]) was 259.00 ± 14.94 cpm and the Relative inhibition (OCT1; [18]) was 92%. For the same compound, the “Relative transporter specific accumulation” value (OCT1; [18]) was 7.84 ± 1.11 % of control, the Transporter specific accumulation (OCT1; [18]) was 83.67 ± 11.38 cpm and the “maximum inhibition of OCT1-mediated sumatriptan accumulation” value (OCT1; 2-concentration assay, 100 μM (Compound A 30 μM)) was 92%. The Maximum % inhibition (OCT1; OCT1, HEK293 cells, sumatriptan (10 μM), NIO: no inhibition observed) was 92%, the Relative inhibition (OCT1; [19]) was 55% and the “Relative transporter specific accumulation” value (OCT1; [19]) was 45.47 ± 2.44 % of control. The Transporter specific accumulation (OCT1; [19]) was 485.00 ± 17.73 cpm, the “maximum inhibition of OCT1-mediated sumatriptan accumulation” value (OCT1; follow-up assay) was 92% and the IC50 (OCT1; follow-up assay, NSB-corrected concentrations for Compound I-19) was 3320 nM.
